Consider one compound from patent US20220265685A1, “METHODS AND COMPOSITIONS FOR IMPROVING COGNITIVE FUNCTION” (priority 2010, published 2022).

Like-named read-outs stand apart in the source and are kept apart here.

In one data set the test system is aMCI subjects. The data set is described as follows: neuropsychological assessment (common cognitive tests). Type of data set: in vivo, human. Particulars: levetiracetam 125 mg twice a day for two weeks. As to the method:
A within-subjects trial of 8 weeks duration, involving 17 amnestic MCI (aMCI) subjects and 17 age-matched controls with a low dose treatment of levetiracetam is conducted. During the course of the study, each aMCI subject receives both drug and placebo treatments separately in two periods of two weeks each, with the order of treatments among different aMCI subjects counterbalanced (see FIG. 3). Age-matched control subjects treated with placebo serve as a further control. Cognitive testing and fMRI imaging data are obtained from the subjects after each two week period of drug/placebo treatment.
All participants undergo neuropsychological evaluation at the time of assessment for treatment efficacy (Visits 1 and 2), as well as at the Baseline Visit.
The evaluation occurs outside of the scanner and includes the Buschke Selective Reminding Test (Buschke and Fuld, 1974) and the Verbal Paired Associates subtest, the Logical Memory subtest, the Visual Reproduction subtest of the Wechsler Memory Scale-Revised (WMS-R) (Wechsler, 1997), and the Benton Visual Retention Test, as these tasks are particularly sensitive to medial temporal lobe function and early memory problems (Marquis et al., 2002 and Masur et al., 1994). Additionally, subjects are asked to complete tests of more general cognitive function such as tests to assess general mental status, executive function, attention and general naming ability. All neuropsychological tests are administered by a trained research assistant during a 60-minute session. As the three neuropsychological assessments in this study occur within a time period of 8 weeks, different versions of the neuropsychological tests are used to minimize test specific practice effects. Breaks are provided to the subject as needed.
As described above, the drug treatment period is the two weeks preceding Visit 1 or 2 (with the two week period preceding the other Visit being the placebo phase). For the subjects receiving the drug treatment, half a scored 250 mg tablet of levetiracetam is used to achieve a dose of […], which is approximately 3.6 mg/kg/day (assuming an average adult human weight of 70 kg).

For data set [1] the following is noted: cited from earlier work.

For the compound `CC[C@@H](C(N)=O)N1CCCC1=O` [levetiracetam, (2S)-2-(2-oxopyrrolidin-1-yl) butanamide], in the data set on aMCI subjects, the “performance in Benton Visual Retention Test” value was “fail to rescue performance”, the “performance in Buschke Selective Reminding Test—Delayed Recall” value was “fail to rescue performance”, the “performance in Verbal Paired Associates Test—Delayed Recall” value is “fail to rescue performance” and the “performance in Verbal Paired Associates Test—Recognition” value is “fail to rescue performance”. Further, in data set [1] (after oral administration), the absorption entry was “rapidly and almost completely absorbed”. In addition, the plasma half-life in data set [1] (expected in elderly due to decreased renal function) is 9 to 10 h. Further, the “time of peak plasma concentrations” value in data set [1] (following oral administration) was “about 1 hour”. Further, in data set [1] (in vivo), the plasma half-life result was “approximately 7±1 hour”. The “time to steady state” value in data set [1] (multiple twice-daily dosing) was 2 days. Also, the “bioavailability, effect of food” value in data set [1] (oral) was “not affected by food”.
